Assay results as given in patent publication US20260070945A1, “MACROCYCLIC IMMUNOMODULATORS” (Bristol-Myers Squibb Company, priority 2022, published 2026).
Where a SMILES comes first, the peptide text is derived from it. Bridges are numbered along the chain shown (N, C = ends). [ ]: non-standard residue; d: D form. The star is where a group is joined. ξ: configuration not given here. Phe(3-CF3) = N[C@@H](Cc1cccc(C(F)(F)F)c1)C(=O)O; Phe(4-COOH) = N[C@@H](Cc1ccc(C(=O)O)cc1)C(=O)O; Bip = N[C@@H](Cc1ccc(-c2ccccc2)cc1)C(=O)O; Phe(3-Me) = Cc1cccc(C[C@H](N)C(=O)O)c1; NH(CH2)12COOH = O=C(O)CCCCCCCCCCCCN*; Val(3-OH) = CC(C)(O)[C@H](N)C(=O)O; 4Pal = N[C@@H](Cc1ccncc1)C(=O)O; Cha = N[C@@H](CC1CCCCC1)C(=O)O; Cit = NC(=O)NCCC[C@H](N)C(=O)O; Thr(3ξ) = CC(O)[C@H](N)C(=O)O; Chg = N[C@H](C(=O)O)C1CCCCC1; Carboxymethyl = O=C(O)C*; NMeA = CN[C@@H](C)C(=O)O; Orn = NCCC[C@H](N)C(=O)O; Aun = NCCCCCCCCCCC(=O)O; Dab = NCC[C@H](N)C(=O)O; Dap = NC[C@H](N)C(=O)O; AEEA = NCCOCCOCC(=O)O

What follows are compounds tested against T1, PD-1/PD-L1 interaction (PE-labeled human PD-L1-Ig binding to Jurkat cell line over-expressing human PD-1) (Homo sapiens, UniProt Q15116) (assay: Jurkat-PD-1 Cell Binding High-Content Screening Assay (CBA)). Settings: Jurkat-hPD-1 cells, PE-labeled PD-L1-Ig 20 nM final; read-out: Jurkat HPD1 PDL1 IC50.
T1 construct: expressed in transfected cells; host or cells: Jurkat
Summary of the method: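 Binding of 20 nM (final) PE-tagged PD-L1-Ig to compound-pretreated Jurkat-hPD-1 cells was measured by high-content imaging after 1 h. Pretreatment ran 2 h at 37 °C in DMEM with 10% fetal calf serum.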

T1 sequence (Q15116 25-288): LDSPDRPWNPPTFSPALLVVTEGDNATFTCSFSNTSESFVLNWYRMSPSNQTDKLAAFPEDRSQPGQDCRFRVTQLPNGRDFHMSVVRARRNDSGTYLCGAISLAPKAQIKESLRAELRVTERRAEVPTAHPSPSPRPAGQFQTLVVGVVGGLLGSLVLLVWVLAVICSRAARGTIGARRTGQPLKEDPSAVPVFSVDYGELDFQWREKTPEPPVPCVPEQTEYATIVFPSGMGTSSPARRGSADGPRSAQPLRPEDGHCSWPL

IC50 [nM] | Compound
41.3 | Cc1cccc(C[C@@H]2NC(=O)[C@H](CC(=O)O)NC(=O)[C@H](Cc3ccc(C(=O)O)cc3)NC(=O)[C@H](Cc3ccc(OCC(=O)O)cc3)NC(=O)CSC[C@@H](C(=O)N[C@H](CC(N)=O)C(=O)NCCCCCCCCCCC(=O)O)NC(=O)[C@H](C(C)O)NC(=O)[C@H](C(C)C)NC(=O)[C@H](CC3CCCCC3)NC(=O)[C@H](CCN)NC(=O)[C@@H](CC(C)C)NC(=O)[C@H](C)N(C)C(=O)[C@H](C(C)C)NC(=O)[C@H](Cc3ccc(-c4ccccc4)cc3)NC(=O)[C@H](CC(C)C)NC2=O)c1 (stereo partly drawn) [Example 2326] ({CH2CO}-Y(Carboxymethyl)[Phe(4-COOH)]D[Phe(3-Me)]L[Bip]V[NMeA][dL][Dab][Cha]V[Thr(3ξ)]C[dN][Aun]-OH; thioether N-14)
7.5 | CC(=O)NCCCC[C@@H]1NC(=O)[C@H](Cc2ccc(-c3ccccc3)cc2)NC(=O)[C@H](C(C)C)NC(=O)[C@H](Cc2cccc(C)c2)NC(=O)[C@H](CC(=O)O)NC(=O)[C@H](Cc2ccc(OCC(=O)O)cc2)NC(=O)[C@H](CCCNC(=N)N)NC(=O)CSC[C@@H](C(=O)NCCOCCOCC(=O)NCCCCCCCCCCC(=O)O)NC(=O)[C@H](C(C)O)NC(=O)[C@H](C(C)C)NC(=O)[C@H](CC2CCCCC2)NC(=O)[C@H](CCN)NC(=O)[C@@H](CC(C)C)NC(=O)[C@H](C)N(C)C1=O (stereo partly drawn) [Example 2289] ({CH2CO}-RY(Carboxymethyl)D[Phe(3-Me)]V[Bip]K(Ac)[NMeA][dL][Dab][Cha]V[Thr(3ξ)]C[AEEA][Aun]-OH; thioether N-14)
12.1 | Cc1cccc(C[C@@H]2NC(=O)[C@H](CC(=O)O)NC(=O)[C@H](Cc3ccc(OCC(=O)O)cc3)NC(=O)[C@H](C(C)O)NC(=O)CSC[C@@H](C(=O)N[C@@H](CCN)C(=O)NCCCCCCCCCCC(=O)O)NC(=O)[C@H](C(C)O)NC(=O)[C@H](C(C)C)NC(=O)[C@H](CC3CCCCC3)NC(=O)[C@H](CCN)NC(=O)[C@@H](CC(C)C)NC(=O)[C@H](C)N(C)C(=O)[C@H](Cc3ccc(OCC(=O)O)cc3)NC(=O)[C@H](Cc3ccc(-c4ccccc4)cc3)NC(=O)[C@H](Cc3ccc(OCC(=O)O)cc3)NC2=O)c1 (stereo partly drawn) [Example 2310] ({CH2CO}-[Thr(3ξ)]Y(Carboxymethyl)D[Phe(3-Me)]Y(Carboxymethyl)[Bip]Y(Carboxymethyl)[NMeA][dL][Dab][Cha]V[Thr(3ξ)]C[Dab][Aun]-OH; thioether N-14)
7 | Cc1cccc(C[C@@H]2NC(=O)[C@H](CC(=O)O)NC(=O)[C@H](Cc3ccc(OCC(=O)O)cc3)NC(=O)[C@H](CN)NC(=O)CSC[C@@H](C(=O)N[C@@H](CCN)C(=O)NCCOCCOCC(=O)NCCCCCCCCCCC(=O)O)NC(=O)[C@H](CCCN)NC(=O)[C@H](C(C)C)NC(=O)[C@H](CC3CCCCC3)NC(=O)[C@H](CCN)NC(=O)[C@@H](CC(C)C)NC(=O)[C@H](C)N(C)C(=O)[C@H](Cc3ccc(O)cc3)NC(=O)[C@H](Cc3ccc(-c4ccccc4)cc3)NC(=O)[C@H](C(C)C)NC2=O)c1 [Example 1314] ({CH2CO}-[Dap]Y(Carboxymethyl)D[Phe(3-Me)]V[Bip]Y[NMeA][dL][Dab][Cha]V[Orn]C[Dab][AEEA][Aun]-OH; thioether N-14)
72.8 | CC(C)C[C@H]1NC(=O)[C@H](C)N(C)C(=O)[C@H](C(C)C)NC(=O)[C@H](Cc2ccc(-c3ccccc3)cc2)NC(=O)[C@H](C2CCCCC2)NC(=O)[C@H](Cc2c[nH]c3ccccc23)NC(=O)[C@H](CC(=O)O)NC(=O)[C@H](Cc2ccncc2)NC(=O)[C@H](Cc2ccc(OCC(=O)O)cc2)NC(=O)CSC[C@@H](C(=O)N[C@@H](CCCCN)C(=O)NCCOCCOCC(=O)NCCCCCCCCCCC(=O)O)NC(=O)[C@H](CO)NC(=O)[C@H](C(C)C)NC(=O)[C@H](CC2CCCCC2)NC(=O)[C@H](CC(=O)O)NC1=O [Example 2092] ({CH2CO}-Y(Carboxymethyl)[4Pal]DW[Chg][Bip]V[NMeA][dL]D[Cha]VSCK[AEEA][Aun]-OH; thioether N-14)
9.3 | CC(C)C[C@@H]1NC(=O)[C@H](Cc2c[nH]c3ccccc23)NC(=O)[C@H](CC(=O)O)NC(=O)[C@H](Cc2ccc(C(=O)O)cc2)NC(=O)[C@H](Cc2ccc(OCC(=O)O)cc2)NC(=O)CSC[C@@H](C(=O)N[C@@H](CCN)C(=O)NCCOCCOCC(=O)NCCCCCCCCCCC(=O)O)NC(=O)[C@H](CCC(=O)O)NC(=O)[C@H](C(C)(C)O)NC(=O)[C@H](CC2CCCCC2)NC(=O)[C@H](CCN)NC(=O)[C@@H](CC(C)C)NC(=O)[C@H](C)N(C)C(=O)[C@H](C(C)C)NC(=O)[C@H](Cc2ccc(-c3ccccc3)cc2)NC1=O [Example 1123] ({CH2CO}-Y(Carboxymethyl)[Phe(4-COOH)]DWL[Bip]V[NMeA][dL][Dab][Cha][Val(3-OH)]EC[Dab][AEEA][Aun]-OH; thioether N-14)

Same assay, conditions: PE-labeled PD-L1-Ig 20 nM final, Jurkat-hPD-1 cells; read-out: Jurkat HPD1 PDL1 IC50

IC50 [nM] | Compound
19.1 | CC(=O)NCCCC[C@@H]1NC(=O)[C@H](C(C)C)NC(=O)[C@H](CC2CCCCC2)NC(=O)[C@H](CCN)NC(=O)[C@@H](CC(C)C)NC(=O)[C@H](C)N(C)C(=O)[C@H](CCC(N)=O)NC(=O)[C@H](Cc2ccc(-c3ccccc3)cc2)NC(=O)[C@H](C(C)C)NC(=O)[C@H](Cc2c[nH]c3ccccc23)NC(=O)[C@H](CC(=O)O)NC(=O)[C@H](Cc2ccc(OCC(=O)O)cc2)NC(=O)[C@H](Cc2ccncc2)NC(=O)CSC[C@@H](C(=O)N[C@@H](CCN)C(=O)NCCOCCOCC(=O)NCCCCCCCCCCC(=O)O)NC1=O [Example 2491] ({CH2CO}-[4Pal]Y(Carboxymethyl)DWV[Bip]Q[NMeA][dL][Dab][Cha]VK(Ac)C[Dab][AEEA][Aun]-OH; thioether N-14)
39.7 | CC(=O)NCCCC[C@@H]1NC(=O)[C@H](C(C)(C)O)NC(=O)[C@H](CC2CCCCC2)NC(=O)[C@H](CCN)NC(=O)[C@@H](CC(C)C)NC(=O)[C@H](C)N(C)C(=O)[C@H](CCC(=O)O)NC(=O)[C@H](Cc2ccc(-c3ccccc3)cc2)NC(=O)[C@H](Cc2ccc(C(=O)O)cc2)NC(=O)[C@H](Cc2cccc(C(F)(F)F)c2)NC(=O)[C@H](CC(=O)O)NC(=O)[C@H](Cc2ccc(OCC(=O)O)cc2)NC(=O)[C@H](Cc2ccc(OCC(=O)O)cc2)NC(=O)CSC[C@@H](C(=O)N[C@@H](CCN)C(=O)NCCOCCOCC(=O)NCCCCCCCCCCCCC(=O)O)NC1=O [Example 2640] ({CH2CO}-Y(Carboxymethyl)Y(Carboxymethyl)D[Phe(3-CF3)][Phe(4-COOH)][Bip]E[NMeA][dL][Dab][Cha][Val(3-OH)]K(Ac)C[Dab][AEEA]-{NH(CH2)12COOH}; thioether N-14)
12.5 | CC(C)C[C@H]1NC(=O)[C@H](C)N(C)C(=O)[C@H](CCCNC(N)=O)NC(=O)[C@H](Cc2ccc(-c3ccccc3)cc2)NC(=O)[C@H](C(C)C)NC(=O)[C@H](Cc2c[nH]c3ccccc23)NC(=O)[C@H](CC(=O)O)NC(=O)[C@H](Cc2ccc(OCC(=O)O)cc2)NC(=O)[C@H](Cc2ccc(OCC(=O)O)cc2)NC(=O)CSC[C@@H](C(=O)NCCOCCOCC(=O)NCCCCCCCCCCC(=O)O)NC(=O)[C@H](CO)NC(=O)[C@H](C(C)(C)O)NC(=O)[C@H](CC2CCCCC2)NC(=O)[C@H](CCN)NC1=O [Example 2456] ({CH2CO}-Y(Carboxymethyl)Y(Carboxymethyl)DWV[Bip][Cit][NMeA][dL][Dab][Cha][Val(3-OH)]SC[AEEA][Aun]-OH; thioether N-14)
